In data set [1] the test system is Guinea-Pig Bladder (GPB) Cells. Nature of the data set: Membrane Hyperpolarization (MHP) assay, DiBAC(4)3 / FLIPR. As to conditions: for EC50: membrane hyperpolarization, GPB cells; for Emax: read-out: Maximal Response (% P1075), maximal steady-state hyperpolarization, normalized to 10 μM P1075 (100%); for Maximal Response (% P1075): maximal steady-state hyperpolarization, normalized to 10 μM P1075 (100%).
Protocol: Compounds were evaluated for potassium channel opening activity using primary cultured guinea-pig urinary bladder (GPB) cells.
For the preparation of urinary bladder smooth muscle cells, urinary bladders were removed from male guinea-pigs (Hartley, Charles River, Wilmington, Mass.) weighing 300-400 grams (g) and placed in ice-cold Ca^2+-free Krebs solution (Composition, millimolar (mM): KCl, 2.7; KH2PO4, 1.5; NaCl, 75; Na2HPO4, 9.6; Na2HPO4.7H2O, 8; MgSO4, 2; glucose, 5; HEPES, 10; pH 7.4). Cells were isolated by enzymatic dissociation (Klockner, U. and Isenberg, G., Pflugers Arch. (1985), 405, 329-339). The bladder was cut into small sections and incubated in 5 milliliters (mL) of the Kreb's solution containing 1 milligram per milliliter (mg/mL) of collagenase (Sigma, St. Louis, Mo.) and 0.2 mg/mL of pronase (Calbiochem, La Jolla, Calif.) with continuous stirring in a cell incubator for 30 minutes. The mixture was then centrifuged at 1300× g for 5 minutes, and the pellet resuspended in Dulbecco's phosphate buffered saline (PBS) (GIBCO, Gaithersburg, Md.) and recentrifuged to remove residual enzyme. The cell pellet was resuspended in 5 mL growth media (composition: Dulbecco's modified Eagle's medium supplemented with 10% fetal bovine serum, 100 units/mL penicillin, 100 units/mL streptomycin and 0.25 mg/mL amphotericin B) and further dissociated by pipetting the suspension through a flame-polished Pasteur pipette and passing it through a polypropylene mesh membrane (Spectrum, Houston, Tex.). The cell density was adjusted to 100,000 cells/mL by resuspension in growth media. Cells were plated in clear-bottomed black 96-well plates (Packard) for membrane potential studies at a density of 20,000 cells/well and maintained in a cell incubator with 90% air: 10% CO2 until confluent. Cells were confirmed to be of smooth muscle type by cytoskeletal staining using a monoclonal mouse anti human-α-smooth muscle actin (Biomeda, Foster City, Calif.).
Functional activity at potassium channels was measured by evaluating changes in membrane potential using the bis-oxonol dye DiBAC(4)3 (Molecular Probes) in a 96-well cell-based kinetic assay system using a Fluorescent Imaging Plate Reader (FLIPR) (K. S. Schroeder et al., J. Biomed. Screen., v. 1 pp. 75-81 (1996)). DiBAC(4)3 is an anionic potentiometric probe which partitions between cells and extracellular solution in a membrane potential-dependent manner. With increasing membrane potential (for example, K^+ depolarization), the probe further partitions into the cell; this is measured as an increase in fluorescence due to dye interaction with intracellular lipids and proteins. Conversely, decreasing membrane potential (hyperpolarization by potassium channel openers) evokes a decrease in fluorescence.
Confluent guinea-pig urinary bladder cells cultured in black clear-bottomed 96-well plates were rinsed twice with 200 mL assay buffer (composition, mM: HEPES, 20; NaCl, 120; KCl, 2; CaCl2, 2; MgCl2, 1; glucose, 5; pH 7.4 at 25° C.) containing 5 μM DiBAC(4)3 and incubated with 180 mL of the buffer in a cell incubator for 30 minutes at 37° C. to ensure dye distribution across the membrane. After recording the baseline fluorescence for 5 minutes, the reference or test compounds, prepared at 10 times the concentration in the assay buffer, were added directly to the wells. Changes in fluorescence were monitored for an additional 25 minutes.
Routinely, five concentrations of P1075 or test compounds (log or half-log dilutions) were evaluated and the maximal steady-state hyperpolarization values (expressed as % relative to P1075) plotted as a function of concentration. The EC50 (concentration that elicites 50% of the maximal response for the test sample) values were calculated by non-linear regression analysis using a four parameter sigmoidal equation. The maximal micromolar EC50 response of each compound (expressed as % relative to P1075) is reported.

In the next data set the test system is Landrace Pig Bladder. Put plainly: Functional potassium channel opening activity in isolated bladder strips (field-stimulated twitch). As to conditions: for Index: ED50 for P1075 divided by ED50 for the test agonist, averaged over tissues; for Efficacy (% P1075) / Emax: maximal efficacy relative to P1075, field stimulated bladder strips; for pD2 / EC50: negative logarithm of ED50; for Emax / EC50: Sus scrofa; for EC50: read-out: pD2 (converted). An outline of the steps:
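Mucosa-free bladder strips from female Landrace pigs (9-30 kg) under 1.0 g preload in Krebs Ringer bicarbonate with 0.004 mM propranolol, field-stimulated at 0.05 Hz, 0.5 ms, 20 V after KCl priming. Cumulative concentration-response curves gave maximal efficacy as % of reference opener and ED50. Potency index = reference ED50/test ED50 in the same tissue, averaged across tissues.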

The term melting point denotes the temperature, or range, at which the solid turns liquid. In turn, `CC1(C)CCC2=C(C1=O)C(c1ccc(F)c(Br)c1)C1=C(COCC1=O)N2` (stereo not drawn) [Example 41, 5-(3-bromo-4-fluorophenyl)-7,7-dimethyl-5,8,9,10-tetrahydro-1H-pyrano[3,4-b]quinoline-4,6(3H,7H)-dione] came in with a melting point of over 260 °C. Further, in data set [1] (Cavia porcellus), the EC50 came to 0.071 µM and the Emax was determined as 66%.

In turn, `O=C1COCC2=C1C(c1ccc(F)c(Br)c1)C1=C(CNC1=O)N2` (stereo not drawn) [Example 27, 9-(3-bromo-4-fluorophenyl)-2,3,5,9-tetrahydropyrano[3,4-b]pyrrolo[3,4-e]pyridine-1,8(4H,7H)-dione] registered a melting point of over 260 °C. In data set [1] (Cavia porcellus), the EC50 was determined as 0.97 µM and the Emax is 87%.

`CCCC1OC(=O)C2=C1NC1=C(C(=O)COC1)C2c1ccc(F)c(Br)c1` (single isomer, unassigned) [Example 98, 9-(3-bromo-4-fluorophenyl)-3-propyl-5,9-dihydro-3H-furo[3,4-b]pyrano[4,3-e]pyridine-1,8(4H,7H)-dione] yielded a melting point of 219 to 220 °C.

`CCCC1OC(=O)C2=C1NC1=C(C(=O)COC1)C2c1ccc(F)c(Br)c1` (single isomer, unassigned) [Example 97, 9-(3-bromo-4-fluorophenyl)-3-propyl-5,9-dihydro-3H-furo[3,4-b]pyrano[4,3-e]pyridine-1,8(4H,7H)-dione]: the melting point was 206 to 208 °C.

`C[C@@H]1OC(=O)C2=C1NC1=C(C(=O)COC1)[C@H]2c1ccc(F)c(Br)c1` (relative stereo) [Example 91, (cis)-9-(3-bromo-4-fluorophenyl)-3-methyl-5,9-dihydro-3H-furo[3,4-b]pyrano[4,3-e]pyridine-1,8(4H,7H)-dione] yielded a melting point of 213 to 216 °C.

On to `C[C@H]1OCC2=C(C1=O)[C@H](c1ccc(F)c(Br)c1)C1=C(COC1=O)N2` (relative stereo) [Example 85, (cis)-9-(3-bromo-4-fluorophenyl)-7-methyl-5,9-dihydro-3H-furo[3,4-b]pyrano[4,3-e]pyridine-1,8(4H,7H)-dione], for which the melting point fell in the range of 234 to 239 °C.

Turning to `CCC1OC(=O)C2=C1NC1=C(C(=O)COC1)C2c1ccc(F)c(Br)c1` (single isomer, unassigned) [Example 96, 9-(3-bromo-4-fluorophenyl)-3-ethyl-5,9-dihydro-3H-furo[3,4-b]pyrano[4,3-e]pyridine-1,8(4H,7H)-dione], the melting point was in the range of 246 to 248 °C.

`CCC1OC(=O)C2=C1NC1=C(C(=O)COC1)C2c1ccc(F)c(Br)c1` (single isomer, unassigned) [Example 95, 9-(3-bromo-4-fluorophenyl)-3-ethyl-5,9-dihydro-3H-furo[3,4-b]pyrano[4,3-e]pyridine-1,8(4H,7H)-dione] had a melting point of 161 to 162 °C.

Take `CC1(C)OC(=O)C2=C1NC1=C(C(=O)COC1)C2c1ccc(F)c(Br)c1` (stereo not drawn) [Example 99, 9-(3-bromo-4-fluorophenyl)-3,3-dimethyl-5,9-dihydro-3H-furo[3,4-b]pyrano[4,3-e]pyridine-1,8(4H,7H)-dione]: the melting point was over 260 °C.

Turning to `C[C@@H]1OC(=O)C2=C1NC1=C(C(=O)COC1)[C@H]2c1ccc(F)c(Br)c1` (relative stereo) [Example 100, (cis)-9-(3-bromo-4-fluorophenyl)-3-methyl-5,9-dihydro-3H-furo[3,4-b]pyrano[4,3-e]pyridine-1,8(4H,7H)-dione], the melting point was 230 to 233 °C.

Turning to `C[C@@H]1OCC(=O)C2=C1NC1=C(C(=O)OC1)[C@H]2c1ccc(F)c(Br)c1` (relative stereo) [Example 89, (cis)-9-(3-bromo-4-fluorophenyl)-5-methyl-5,9-dihydro-3H-furo[3,4-b]pyrano[4,3-e]pyridine-1,8(4H,7H)-dione], the melting point was 260 to 263 °C.

On to `O=C1COCC2=C1C(c1csc([N+](=O)[O-])c1)C1=C(COCC1=O)N2` [Example 36, 5-(5-nitro-3-thienyl)-5,10-dihydro-1H,3H-dipyrano[3,4-b:4,3-e]pyridine-4,6(7H,9H)-dione], for which, in the data set with Landrace Pig Bladder, the Index is recorded as 0.24, the “Efficacy (% P1075)” value was 100 % P1075 and the pD2 was found to be 6.5. In data set [1], the “Maximal Response (% P1075)” value is recorded as 98 % P1075 and the EC50 stood at 0.082 µM.

With `Cl.O=C1CCC2=C1C(c1ccc(F)c(Cl)c1)C1=C(CNCC1=O)N2` (stereo not drawn) [Example 38, 5-(3-chloro-4-fluorophenyl)-2,3,5,7,8,9-hexahydro-1H-cyclopenta[b][1,7]naphthyridine-4,6-dione Hydrochloride], in the data set with Landrace Pig Bladder, the Index came to 0.024, the Emax was determined as 80% and the EC50 is 5.01 µM. Also, in data set [1] (Cavia porcellus), the EC50 worked out at 0.39 µM and the Emax was found to be 82%.

Take `O=C1COCC2=C1C(c1ccc([N+](=O)[O-])s1)C1=C(COCC1=O)N2` [Example 35, 5-(5-nitro-2-thienyl)-5,10-dihydro-1H,3H-dipyrano[3,4-b:4,3-e]pyridine-4,6(7H,9H)-dione]: in the data set on Landrace Pig Bladder, the Index was found to be 1.8, the “Efficacy (% P1075)” value was 100 % P1075 and the pD2 stood at 7.4. Besides, in data set [1], the “Maximal Response (% P1075)” value was determined as 98 % P1075 and the EC50 is 0.025 µM.

For `Cl.O=C1CCC2=C1C(c1ccc(F)c(Br)c1)C1=C(CNCC1=O)N2` (single isomer, unassigned; (-)) [Example 5, (−)-5-(3-bromo-4-fluorolphenyl)-2,3,5,7,8,9-hexahydro-1H-cyclopenta[b][1,7]naphthyridine-4,6-dione Hydrochloride], in the data set on Landrace Pig Bladder (Hydrochloride), the Index is listed as 0.16 and the pD2 is 6.4. The “Efficacy (% P1075)” value with Landrace Pig Bladder worked out at 100 % P1075. In data set [1] (Hydrochloride), the “Maximal Response (% P1075)” value amounted to 97 % P1075 and the EC50 worked out at 0.19 µM.

`CN1CC(=O)C2=C(C1)NC1=C(C(=O)CCC1)C2c1ccc(F)c(Br)c1.Cl` (stereo not drawn) [Example 3, 5-(3-bromo-4-fluorophenyl)-2-methyl-2,3,5,8,9,10-hexahydrobenzo[b][1,7]naphthyridine-4,6(1H, 7H)-dione Hydrochloride] registered a melting point of 248 to 250 °C. Also, in data set [1] (Cavia porcellus), the EC50 was 27 µM and the Emax was 41%.

Take `Cc1ccc(C2C3=C(COCC3=O)NC3=C2C(=O)COC3)cc1Br` [Example 53, 5-(3-bromo-4-methylphenyl)-5,10-dihydro-1H,3H-dipyrano[3,4-b:4,3-e]pyridine-4,6(7H,9H)-dione]: in the data set on Landrace Pig Bladder, the Index was found to be 0.44, the “Efficacy (% P1075)” value came to 100 % P1075 and the pD2 came out at 7.0. Moreover, in data set [1], the “Maximal Response (% P1075)” value was determined as 98 % P1075 and the EC50 came to 0.019 µM.

In the data set with Landrace Pig Bladder (Hydrochloride), `Cl.O=C1CCCC2=C1C(c1ccc(F)c(Br)c1)C1=C(CNCC1=O)N2` (single isomer, unassigned; (-)) [Example 7, (−)-5-(3-bromo-4-fluorophenyl)-2,3,5,8,9,10-hexahydrobenzo[b][1,7]naphthyridine-4,6(1H, 7H)-dione Hydrochloride] had an Index of 0.040 and a pD2 of 5.4. Further, in the data set with Landrace Pig Bladder, the Emax was determined as 97%. In data set [1] (Hydrochloride), the “Maximal Response (% P1075)” value worked out at 75 % P1075 and the EC50 worked out at 0.57 µM.

In the data set on Landrace Pig Bladder, `O=C1COCC2=C1C(c1ccc(Cl)c([N+](=O)[O-])c1)C1=C(CCS1(=O)=O)N2` (single isomer, unassigned; (+)) [Example 18, (+)-9-(4-chloro-3-nitrophenyl)-2,3,5,9-tetrahydro-4H-pyrano[3,4-b]thieno[2,3-e]pyridin-8(7H)-one 1,1-dioxide] displayed an Index of 1.6, an Emax of 100% and a pD2 of 7.3. In data set [1], the “Maximal Response (% P1075)” value is on record as 95 % P1075 and the EC50 amounted to 0.058 µM.

On to `O=C1COCC2=C1C(c1ccc(F)c(I)c1)C1=C(CCS1(=O)=O)N2` (stereo not drawn) [Example 37, 9-(4-fluoro-3-iodophenyl)-2,3,5,9-tetrahydro-4H-pyrano[3,4-b]thieno[2,3-e]pyridin-8(7H)-one 1,1-dioxide], for which, in the data set on Landrace Pig Bladder, the Index is given as 2.1, the Emax stood at 95% and the EC50 is 0.0501 µM. In data set [1] (Cavia porcellus), the EC50 is 0.00064 µM and the Emax was found to be 105%.

As to `O=C1COCC2=C1C(c1ccc(F)c(Br)c1)C1=C(CCS1(=O)=O)N2` (single isomer, unassigned; (-)) [Example 13, (−)-9-(3-bromo-4-fluorophenyl)-2,3,5,9-tetrahydro-4H-pyrano[3,4-b]thieno[2,3-e]pyridin-8(7H)-one 1,1-dioxide], in the data set on Landrace Pig Bladder, the Index came out at 0.13, the “Efficacy (% P1075)” value is 98 % P1075 and the pD2 is listed as 5.9. In data set [1], the “Maximal Response (% P1075)” value came out at 101 % P1075 and the EC50 worked out at 0.24 µM.

These data come from patent publication US6642222B2, “Pyrano, piperidino, and thiopyrano compounds and methods of use” (Abbott Laboratories, priority 1998, dated 2003).
